# Experimental data published in patent publication US20230035688A1, “METHOD FOR TREATING GASTRIC CANCER BY BLOCKING CCL28 CHEMOTACTIC PATHWAY” (SHANGHAI JIAO TONG UNIVERSITY, priority 2019, published 2023).
# Columns and labels:
# colon tumor cell lines = settings: cited from earlier work
# [1] = test system: Wnt pathway reporter gene TOPflash; test: Wnt pathway reporter gene TOPflash luciferase activity with β-catenin overexpression; assay type: cell-based, human; settings: FIG. 2D
# Description: (§1) Wnt/β-catenin reporter plasmid M50 Super 8X TOPFlash (Addgene plasmid #12456) and mutant control M51 Super 8X FOPFlash (Addgene plasmid #12457) are gifts from Randall Moon. The promoter of the human CCL28 gene (2.8 kb, −2576/+205 relative to the transcriptional start site) was cloned into the firefly luciferase reporter gene construct pGL4. Mutations of potential TCF/LEF binding sites on the CCL28 promoter were introduced using the Hieff Mut™ Multisite Directed Mutagenesis Kit (Yeasen, Shanghai) to produce a mutant CCL28 promoter report construct (pGL4-CCL28.mut). The plasmids were transfected using a jetPRIME transfection reagent (Polybus Transfection). Transfection efficiency was standardized by co-transfection with a pRL-CMV reporter gene containing the Ranilla Luciferase gene. Firefly and Ranilla luciferase activities were measured using a Dual-Glo luciferase assay system (Promega).
# (§2) In this Example, the correlation between CCL28 and β-catenin signaling pathway structure is analyzed in combination with bioinformatics, and then the relationship between the two is verified in the cell model. […] After using β-catenin/TCF, the transcriptional activity of CCL28 promoter was detected after shRNA knockdown of TCF/LEF transcription factor family members or overexpression of TCF/LEF members.
# CCL28 promoter = CCL28 promoter luciferase reporter gene activity with β-catenin overexpression; assay type: cell-based, human; settings: FIG. 2D
# Description: as §1, §2
# CCL28 protein = CCL28 protein expression in stomach of H. felis/MNU in situ gastric cancer mice (Western blotting, ELISA); assay type: in vivo, mouse; settings: intraperitoneal injection; Western blotting (FIG. 3A) and ELISA (FIG. 3B)
# Description: The proteins in gastric cancer cell line and mouse gastric tissue were lysed with RIPA lysate (Thermo Scientific) added with protease inhibitor (Roche), and the protein concentration was detected using BCA Protein Assay Reagent (Thermo Scientific). The detected proteins were as follows: β-catenin (Abcam), CCL28 (R & D Systems), active β-catenin (Merck), GAPDH (Abcam) and β-tubulin (Abcam).
# In order to establish gastric cancer mouse mode induced by Helicobacter felis (H. felis) and N-Methyl-N-nitrosourea (MNU), 8-week-old wild-type mice were fed by gavage with H. felis strain (ATCC 49179) three times a week, followed by given drinking water containing 240 ppm MNU every other week for a total of 12 weeks.
compound,measurement,setting,value
Cc1cc(/C=C2\SC(=O)N(c3ccccc3)C2=O)c(C)n1-c1cccnc1 [iCRT14],cell cycle arrest,colon tumor cell lines,G0/G1 arrest
same,activity of Wnt pathway reporter gene TOPflash,[1],reduced the activity of both reporter genes
same,up-regulation effect of β-catenin on CCL28 promoter activity,CCL28 promoter,reduces the up-regulation effect of β-catenin on CCL28 promoter activity
same,expression of CCL28 protein in the stomach,CCL28 protein,significantly reduces the expression of CCL28 protein in the stomach
